Patent US20260224536A1, “ARYL HETEROCYCLIC KV1.3 INHIBITOR, PREPARATION METHOD THEREFOR, AND USE THEREOF” (SHANGHAI SHENSHI WISE TECHNOLOGY CO., LTD., priority 2022, published 2026)

target: Kv1.3 potassium channel (Homo sapiens, UniProt P22001); experiment: Whole-cell patch-clamp assay for inhibitory activity against Kv1.3 (peak current); assay type: cell-based; settings: HEK293 cells stably expressing Kv1.3, patch-clamp
From the text: The voltage stimulation protocol for recording whole-cell Kv1.X potassium currents via patch-clamp was as follows. After formation of a whole-cell seal, the cell membrane voltage was clamped at −80 mV, and then stepped to +40 mV for 500 ms. […] The test data were acquired by EPC-10 amplifier (HEKA) and stored in the PatchMaster (HEKA) software. Recording electrodes were drawn from capillary glass tubes using a microelectrode puller. Under an inverted microscope, the recording electrode was brought into contact with the cell surface by manipulating a microelectrode manipulator. Negative-pressure suction was applied to form a GΩ seal. After formation of the […], a rapid capacitance compensation was given. The application of negative pressure was continued to rupture the cell membrane, forming a whole-cell recording mode. Then, a slow capacitance compensation was given, and the membrane capacitance and series resistance were recorded. No current leakage compensation was provided. Once the whole-cell recorded Kv1.X current stabilized, drug administration was started. Each drug concentration was allowed to act for 5 min (or until the current reached a steady state) before the next concentration was tested. Multiple concentrations were tested for each test compound. The cover glass plated with the cells was placed in a recording bath of the inverted microscope. The test compound and the compound-free extracellular fluid were allowed to sequentially flow through the recording bath from low concentrations to high concentrations using a gravity perfusion method, thus acting on the cells, and liquid exchange was performed using a vacuum pump during recording. For each cell, the current detected in the compound-free extracellular liquid was used as its own control group. The test was independently repeated three times using at least three cells per concentration. All electrophysiological experiments were performed at room temperature. […] First, the peak current after the action of each drug concentration and the peak current of the blank control were standardized and then the inhibition rate corresponding to each drug concentration was calculated Subsequently, the mean, standard deviation (SD), and standard error (SE) were calculated for the inhibition rate corresponding to each concentration. Using the above equation, the IC50 value for each compound was calculated, and the dose-dependent effect was subjected to non-linear fitting, where IC50 is the half maximal inhibitory concentration. The IC50 calculation and the curve fitting were performed using the GraphPad Prism software.

Kv1.3 potassium channel, sequence (P22001 whole entry): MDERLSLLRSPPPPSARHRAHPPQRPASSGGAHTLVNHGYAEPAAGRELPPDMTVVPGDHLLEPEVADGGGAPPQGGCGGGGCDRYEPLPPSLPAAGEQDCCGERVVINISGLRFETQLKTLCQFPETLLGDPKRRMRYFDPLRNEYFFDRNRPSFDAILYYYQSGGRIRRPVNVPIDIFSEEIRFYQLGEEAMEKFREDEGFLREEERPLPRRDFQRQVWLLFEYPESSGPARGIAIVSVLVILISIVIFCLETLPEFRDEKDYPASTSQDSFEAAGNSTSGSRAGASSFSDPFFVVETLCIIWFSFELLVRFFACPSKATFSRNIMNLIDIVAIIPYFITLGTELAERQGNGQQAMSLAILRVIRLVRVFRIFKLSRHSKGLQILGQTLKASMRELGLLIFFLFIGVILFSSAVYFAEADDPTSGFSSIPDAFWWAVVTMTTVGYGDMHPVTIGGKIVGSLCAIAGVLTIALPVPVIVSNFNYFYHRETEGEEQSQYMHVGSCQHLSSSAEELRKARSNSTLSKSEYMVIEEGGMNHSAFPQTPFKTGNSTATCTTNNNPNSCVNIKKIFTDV

Row | Compound | IC50
1 | CC(F)(F)c1nnc2n1C[C@H](c1c(O)ccc(Cl)c1Cl)C2 [Example 85, (S)-3,4-Dichloro-2-(3-(1,1-difluoroethyl)-6,7-dihydro-5H-pyrrolo[2,1-c][1,2,4]triazol-6-yl)phenol] | 24.5 nM
2 | Oc1ccc(Cl)c(Cl)c1[C@@H]1Cc2nnc(C(F)(F)F)n2C1 [Example 86, (S)-3,4-Dichloro-2-(3-(trifluoromethyl)-6,7-dihydro-5H-pyrrolo[2,1-c][1,2,4]triazol-6-yl)phenol] | 25 nM
3 | Oc1ccc(Cl)c(Cl)c1[C@@H]1Cc2nnc(CC(F)(F)F)n2C1 [Example 87, (S)-3,4-Dichloro-2-(3-(2,2,2-trifluoroethyl)-6,7-dihydro-5H-pyrrolo[2,1-c][1,2,4]triazol-6-yl)phenol] | 20.7 nM
4 | CC1(C)CC(c2nnc3n2CC(c2c(O)ccc(Cl)c2Cl)C3)CC(C)(C)N1 (stereo not drawn) [Example 88, 3,4-Dichloro-2-(3-(2,2,6,6-tetramethylpiperidin-4-yl)-6,7-dihydro-5H-pyrrolo[2,1-c][1,2,4]triazol-6-yl)phenol] | 58.6 nM
5 | CC1(C)CC(c2nnc3n2CC(c2c(O)ccc(Cl)c2Cl)C3)CCN1 (stereo not drawn) [Example 89, 3,4-Dichloro-2-(3-(2,2-dimethylpiperidin-4-yl)-6,7-dihydro-5H-pyrrolo[2,1-c][1,2,4]triazol-6-yl)phenol] | 8.25 nM
6 | Oc1ccc(Cl)c(Cl)c1[C@@H]1Cc2ncc(C3CCCC3)n2C1 [Example 90, (S)-3,4-Dichloro-2-(3-cyclopentyl-6,7-dihydro-5H-pyrrolo[1,2-a]imidazol-6-yl)phenol] | 7.08 nM
7 | Oc1ccc(Cl)c(Cl)c1[C@H]1Cc2ncc(C3CCCC3)n2C1 [Example 91, (R)-3,4-dichloro-2-(3-cyclopentyl-6,7-dihydro-5H-pyrrolo[1,2-a]imidazol-6-yl)phenol] | 4.92 nM
8 | CCc1cnc2n1C[C@H](c1c(O)ccc(Cl)c1Cl)C2 [Example 92, (S)-3,4-Dichloro-2-(3-ethyl-6,7-dihydro-5H-pyrrolo[1,2-a]imidazol-6-yl)phenol] | 5.51 nM
9 | CCc1cnc2n1C[C@@H](c1c(O)ccc(Cl)c1Cl)C2 [Example 93, (R)-3,4-dichloro-2-(3-ethyl-6,7-dihydro-5H-pyrrolo[1,2-a]imidazol-6-yl)phenol] | 3.11 nM
10 | CC(C)N1CCC(c2cnc3n2C[C@@H](c2c(O)ccc(Cl)c2Cl)C3)CC1 [Example 95, (R)-3,4-dichloro-2-(3-(1-isopropylpiperidin-4-yl)-6,7-dihydro-5H-pyrrolo[1,2-a]imidazol-6-yl)phenol] | 6.06 nM
11 | COc1ccc(-c2cnc3n2CC(c2c(O)ccc(Cl)c2Cl)C3)cc1 (stereo not drawn) [Example 96, 3,4-Dichloro-2-(3-(4-methoxyphenyl)-6,7-dihydro-5H-pyrrolo[1,2-a]imidazol-6-yl)phenol] | 51.6 nM
12 | Cn1cc(-c2cnc3n2CC(c2c(O)ccc(Cl)c2Cl)C3)cn1 (stereo not drawn) [Example 97, 3,4-Dichloro-2-(3-(1-methyl-1H-pyrazol-4-yl)-6,7-dihydro-5H-pyrrolo[1,2-a]imidazol-6-yl)phenol] | 11.7 nM
13 | CC(C)(C)n1cc(-c2cnc3n2CC(c2c(O)ccc(Cl)c2Cl)C3)cn1 (stereo not drawn) [Example 98, 2-(3-(1-(tert-Butyl)-1H-pyrazol-4-yl)-6,7-dihydro-5H-pyrrolo[1,2-a]imidazol-6-yl)-3,4-dichlorophenol] | 25.5 nM
14 | CC(C)N1CCN(c2cnc3n2CC(c2c(O)ccc(Cl)c2Cl)C3)CC1 (stereo not drawn) [Example 100, 3,4-Dichloro-2-(3-(4-isopropylpiperazin-1-yl)-6,7-dihydro-5H-pyrrolo[1,2-a]imidazol-6-yl)phenol] | 9.89 nM
15 | Oc1ccc(Cl)c(Cl)c1C1Cc2nnc(N3CCOCC3)n2C1 (stereo not drawn) [Example 101, 3,4-Dichloro-2-(3-morpholino-6,7-dihydro-5H-pyrrolo[2,1-c][1,2,4]triazol-6-yl)phenol] | 9.8 nM
16 | CC(C)N1CCC(Oc2nnc3n2CC(c2c(O)ccc(Cl)c2Cl)C3)CC1 (stereo not drawn) [Example 102, 3,4-dichloro-2-(3-((1-isopropylpiperidin-4-yl)oxy)-6,7-dihydro-5H-pyrrolo[2,1-c][1,2,4]triazol-6-yl)phenol] | 6.99 nM
17 | CC(C)N1CCC(n2nc3n(c2=O)C[C@H](c2c(O)ccc(Cl)c2Cl)C3)CC1 [Example 103, (S)-6-(2,3-dichloro-6-hydroxyphenyl)-2-(1-isopropylpiperidin-4-yl)-2,5,6,7-tetrahydro-3H-pyrrolo[2,1-c][1,2,4]triazol-3-one] | 7.68 nM

Row | Compound | IC50
18 | CC(C)N1CCC(n2nc3n(c2=O)C[C@@H](c2c(O)ccc(Cl)c2Cl)C3)CC1 [Example 104, (R)-6-(2,3-dichloro-6-hydroxyphenyl)-2-(1-isopropylpiperidin-4-yl)-2,5,6,7-tetrahydro-3H-pyrrolo[2,1-c][1,2,4]triazol-3-one] | 6.93 nM
19 | O=c1n(C2CCNCC2)nc2n1CC(c1c(O)ccc(Cl)c1Cl)C2 (stereo not drawn) [Example 105, 6-(2,3-Dichloro-6-hydroxyphenyl)-2-(piperidin-4-yl)-2,5,6,7-tetrahydro-3H-pyrrolo[2,1-c][1,2,4]triazol-3-one] | 5.93 nM
20 | CCn1nc2n(c1=O)C[C@H](c1c(O)ccc(Cl)c1Cl)C2 [Example 106, (S)-6-(2,3-Dichloro-6-hydroxyphenyl)-2-ethyl-2,5,6,7-tetrahydro-3H-pyrrolo[2,1-c][1,2,4]triazol-3-one] | 29.8 nM
21 | O=c1n(CC(F)F)nc2n1C[C@H](c1c(O)ccc(Cl)c1Cl)C2 [Example 107, (S)-6-(2,3-Dichloro-6-hydroxyphenyl)-2-(2,2-difluoroethyl)-2,5,6,7-tetrahydro-3H-pyrrolo[2,1-c][1,2,4]triazol-3-one] | 31 nM
22 | O=c1n(C2CCOCC2)nc2n1C[C@H](c1c(O)ccc(Cl)c1Cl)C2 [Example 108, (S)-6-(2,3-Dichloro-6-hydroxyphenyl)-2-(tetrahydro-2H-pyran-4-yl)-2,5,6,7-tetrahydro-3H-pyrrolo[2,1-c][1,2,4]triazol-3-one] | 27.8 nM
23 | O=c1n([C@H]2CCOC2)nc2n1C[C@H](c1c(O)ccc(Cl)c1Cl)C2 [Example 109, (S)-6-(2,3-Dichloro-6-hydroxyphenyl)-2-((S)-tetrahydrofuran-3-yl)-2,5,6,7-tetrahydro-3H-pyrrolo[2,1-c][1,2,4]triazol-3-one] | 31.7 nM
24 | O=c1n([C@@H]2CCOC2)nc2n1C[C@H](c1c(O)ccc(Cl)c1Cl)C2 [Example 110, (S)-6-(2,3-dichloro-6-hydroxyphenyl)-2-((R)-tetrahydrofuran-3-yl)-2,5,6,7-tetrahydro-3H-pyrrolo[2,1-c][1,2,4]triazol-3-one] | 20.1 nM
25 | Oc1ccc(Cl)c(Cl)c1[C@@H]1Cc2nnc(-c3ccnc(C(F)(F)F)c3)n2C1 [Example 111, (S)-3,4-Dichloro-2-(3-(2-(trifluoromethyl)pyridin-4-yl)-6,7-dihydro-5H-pyrrolo[2,1-c][1,2,4]triazol-6-yl)phenol] | 14.4 nM
26 | CCn1cc2c(n1)CC(c1c(O)ccc(Cl)c1Cl)C2 (stereo not drawn) [Example 112, 3,4-Dichloro-2-(2-ethyl-2,4,5,6-tetrahydrocyclopenta[c]pyrazol-5-yl)phenol] | 43.1 nM
27 | CCc1c2c(nn1C)CC(c1c(O)ccc(Cl)c1Cl)C2 (stereo not drawn) [Example 113, 3,4-Dichloro-2-(3-ethyl-2-methyl-2,4,5,6-tetrahydrocyclopenta[c]pyrazol-5-yl)phenol] | 57.9 nM
28 | CCc1nn(C)c2c1C[C@H](c1c(O)ccc(Cl)c1Cl)C2 [Example 115, (S)-3,4-Dichloro-2-(3-ethyl-1-methyl-1,4,5,6-tetrahydrocyclopenta[c]pyrazol-5-yl)phenol] | 58.8 nM
29 | CCc1nn(C)c2c1C[C@@H](c1c(O)ccc(Cl)c1Cl)C2 [Example 116, (R)-3,4-dichloro-2-(3-ethyl-1-methyl-1,4,5,6-tetrahydrocyclopenta[c]pyrazol-5-yl)phenol] | 44.1 nM
30 | CCn1ncc2c1C[C@@H](c1c(O)ccc(Cl)c1Cl)C2 [Example 117, (S)-3,4-dichloro-2-(1-ethyl-1,4,5,6-tetrahydrocyclopenta[c]pyrazol-5-yl)phenol] | 65 nM
31 | Oc1ccc(Br)c(Br)c1C1Cc2nnc([C@@H]3CCOC3)n2C1 (stereo partly drawn) [Example 119, 3,4-Dibromo-2-(3-((S)-tetrahydrofuran-3-yl)-6,7-dihydro-5H-pyrrolo[2,1-c][1,2,4]triazol-6-yl)phenol] | 6.54 nM
32 | Oc1ccc(Br)c(Cl)c1C1Cc2nnc([C@@H]3CCOC3)n2C1 (stereo partly drawn) [Example 120, (S)-4-Bromo-3-chloro-2-(3-(tetrahydrofuran-3-yl)-6,7-dihydro-5H-pyrrolo[2,1-c][1,2,4]triazol-6-yl)phenol] | 20.2 nM
33 | CC(C)N1CCN(C(=O)c2cnc3n2C[C@H](c2c(O)ccc(Cl)c2Cl)C3)CC1 [Example 121, (S)-(6-(2,3-Dichloro-6-hydroxyphenyl)-6,7-dihydro-5H-pyrrolo[1,2-a]imidazol-3-yl)(4-isopropylpiperazin-1-yl)methanone] | 9.68 nM
